The test system of experiment [1] is MDA-MB-453. The experiment is described as follows: drug sensitivity score (DSS), single agent (DSS (weighted AUC score)); higher = more sensitive (stronger viability decrease); extreme values may be limits of the assay. The conditions noted are these: BLU9931 0 nM; 72 h. The gist of the method:
(§1)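 Compounds from the FIMM Oncology set were predispensed in singlicate at five 10-fold dilutions (10,000-fold range) on 384-well plates. Each well then received 2000 MDA-MB-453 cells in medium with or without an FGFR4 inhibitor (100 nM final) and was kept at 37 °C, 5% CO2. Cellular ATP was read with CellTiterGlo 2.0 after 72 h and normalised per plate to percent viability from control wells. The drug sensitivity score is a weighted area under a four-parameter logistic fit.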

Experiment [2] relates to MDA-MB-453. The experiment is described as follows: drug sensitivity score (DSS), in combination with BLU9931 (DSS (weighted AUC score)); higher = more sensitive (stronger viability decrease); extreme values may be limits of the assay. The settings on record: BLU9931 100 nM; 72 h. The gist of the method: as §1

In the supplement of paper PMC7224384 one finds drug sensitivity score data, which are given here for 47 compounds.

For `CO[C@H]1C[C@@H]2CC[C@@H](C)[C@@](O)(O2)C(=O)C(=O)N2CCCC[C@H]2C(=O)O[C@H]([C@H](C)C[C@@H]2CC[C@@H](OP(C)(C)=O)[C@H](OC)C2)CC(=O)[C@H](C)/C=C(\C)[C@@H](O)[C@@H](OC)C(=O)[C@H](C)C[C@H](C)/C=C/C=C/C=C/1C` [Ridaforolimus], the results for the drug sensitivity score with MDA-MB-453 [1] and in the experiment on MDA-MB-453 [2] were 9.5 and 14.7, respectively.
For `C=C1C[C@@H]2[C@H](CC[C@]3(C)C(=O)CC[C@@H]23)[C@@]2(C)C=CC(=O)C=C12` [Exemestane] the same measures were 4.8 and 0.
For `O=C(Nc1cnn2ccc(N3CCC[C@@H]3c3cc(F)ccc3F)nc12)N1CC[C@H](O)C1` [Larotrectinib], in that order: 0.4 and 0.
For `CN1CCN(c2ccc(C(=O)Nc3n[nH]c4ccc(Cc5cc(F)cc(F)c5)cc34)c(NC3CCOCC3)c2)CC1` [Entrectinib] the same measures were 0 and 0.
As for `CCNC(=O)c1noc(-c2cc(C(C)C)c(O)cc2O)c1-c1ccc(CN2CCOCC2)cc1` [Luminespib], the drug sensitivity score in the experiment on MDA-MB-453 [1] is 18.1; in the experiment on MDA-MB-453 [2] it was 19.7.
For `CC(C)Nc1cc(-c2c[nH]c(C(=O)N[C@H](CO)c3cccc(Cl)c3)c2)c(Cl)cn1` [Ulixertinib], in that order: 3.5 and 0.5.
For `CC(C)C(=O)Nc1ccc([N+](=O)[O-])c(C(F)(F)F)c1` [Flutamide], in that order: 0 and 0.
On to `CCN(CC)CCNC(=O)c1c(C)[nH]c(/C=C2\C(=O)Nc3ccc(F)cc32)c1C` [Sunitinib], for which the drug sensitivity score in the experiment on MDA-MB-453 [1] was 0.2; in the experiment on MDA-MB-453 [2] it was 0.
With `CNC(=O)c1cc(Oc2ccc(NC(=O)Nc3ccc(Cl)c(C(F)(F)F)c3)cc2)ccn1` [Sorafenib], the drug sensitivity score in the experiment with MDA-MB-453 [1] and in the experiment on MDA-MB-453 [2] was 0 each time.
As for `CC(C)c1cc(C(=O)N2Cc3ccc(CN4CCN(C)CC4)cc3C2)c(O)cc1O` [Onalespib], the drug sensitivity score came to 17 in the experiment on MDA-MB-453 [1] and 16.4 with MDA-MB-453 [2].
As to `Oc1ccc2c(c1)CC[C@H](c1ccccc1)[C@@H]2c1ccc(OCCN2CCCC2)cc1` [Lasofoxifene], the drug sensitivity score with MDA-MB-453 [1] is 0.7; in the experiment with MDA-MB-453 [2], 0.2.
For `COC(=O)C[C@](O)(CCCC(C)(C)O)C(=O)O[C@@H]1C(OC)=C[C@]23CCCN2CCc2cc4c(cc2[C@H]13)OCO4` [Omacetaxine] the same measures were 22.1 and 20.5.
For `Cc1cccc(-c2[nH]c(CNc3ccccc3F)nc2-c2ccc3ncnn3c2)n1` [TEW-7197], in that order: 5.2 and 1.8.
For `CN(C)Cc1ccc(S(=O)(=O)n2ccc(/C=C/C(=O)NO)c2)cc1` [Resminostat], in that order: 16 and 16.2.
In the case of `Cc1cc(OCc2nnc(SC3CCCC3)n2-c2cccnc2)ccc1-c1ccc(S(C)(=O)=O)cc1` [NMS-873], the drug sensitivity score in the experiment on MDA-MB-453 [1] is 11.4; in the experiment on MDA-MB-453 [2] it was 9.1.
For `NS(=O)(=O)OC[C@@H]1C[C@@H](n2ccc3c(N[C@H]4CCc5ccccc54)ncnc32)C[C@@H]1O` [Pevonedistat], in that order: 7 and 3.3.
For `Cn1cncc1[C@@](N)(c1ccc(Cl)cc1)c1ccc2c(c1)c(-c1cccc(Cl)c1)cc(=O)n2C` [Tipifarnib] the same measures were 8.3 and 4.1.
For `CCCCC(=O)OCC(=O)[C@]1(O)Cc2c(O)c3c(c(O)c2[C@@H](O[C@H]2C[C@H](NC(=O)C(F)(F)F)[C@H](O)[C@H](C)O2)C1)C(=O)c1c(OC)cccc1C3=O` [Valrubicin], in that order: 8.6 and 8.
In the case of `O=C(Nc1c[nH]nc1-c1nc2ccc(CN3CCOCC3)cc2[nH]1)NC1CC1` [AT9283], the drug sensitivity score in the experiment on MDA-MB-453 [1] and in the experiment on MDA-MB-453 [2] was 2.3 throughout.
Consider `O=C(/C=C\n1cnc(-c2cc(C(F)(F)F)cc(C(F)(F)F)c2)n1)NNc1cnccn1` [Selinexor], for which the drug sensitivity score stood at 9.6 in the experiment on MDA-MB-453 [1] and 9.5 in the experiment on MDA-MB-453 [2].
For `C[C@@H](Oc1cc(-c2cnn(C3CCNCC3)c2)cnc1N)c1c(Cl)ccc(F)c1Cl` [Crizotinib] the same measures were 0 and 0.
For `Cc1ccc(-n2nc(C(C)(C)C)cc2NC(=O)Nc2ccc(OCCN3CCOCC3)c3ccccc23)cc1` [Doramapimod] the same measures were 2.3 and 1.8.
For `Cc1ccc(NC(=O)c2ccc(CN3CCN(C)CC3)cc2)cc1Nc1nccc(-c2cccnc2)n1` [Imatinib], in that order: 0.9 and 0.1.
On to `C=CC(=O)N1CCC[C@@H](n2nc(-c3ccc(Oc4ccccc4)cc3)c3c(N)ncnc32)C1` [Ibrutinib], for which the drug sensitivity score in the experiment on MDA-MB-453 [1] was determined as 14.5; in the experiment on MDA-MB-453 [2], 15.8.
For `COc1cc2c(cc1OC(C)C)[C@H](c1ccc(Cl)cc1)N(c1ccc(N(C)C[C@H]3CC[C@H](N4CCN(C)C(=O)C4)CC3)cc1)C(=O)C2` [NVP-CGM097], in that order: 7.9 and 8.5.
In the case of `CC1=C(/C=C/C(C)=C/C=C/C(C)=C/C(=O)O)C(C)(C)CCC1` [Tretinoin], the drug sensitivity score with MDA-MB-453 [1] and with MDA-MB-453 [2] was 0 each time.
For the compound `Cc1cc(Nc2cc(CN3CCOCC3)c3nc(C)c(Cc4ccc(Cl)cc4F)n3n2)n[nH]1` [Gandotinib], the values for the drug sensitivity score in the experiment on MDA-MB-453 [1] and in the experiment with MDA-MB-453 [2] were 5 and 1.2, respectively.
For `Clc1ccc(C(c2ccccc2Cl)C(Cl)Cl)cc1` (centres undefined) [Mitotane] the same measures were 0.6 and 0.
With `CCNc1nc(Nc2cc(F)c(C(=O)N3CCOCC3)cc2OC)ncc1C(F)(F)F` [GNE-7915], the drug sensitivity score in the experiment on MDA-MB-453 [1] and with MDA-MB-453 [2] was 0 in each case.
As to `CCc1c2c(nc3ccc(O)cc13)-c1cc3c(c(=O)n1C2)COC(=O)[C@]3(O)CC` [SN-38], the drug sensitivity score in the experiment with MDA-MB-453 [1] came to 28.8; with MDA-MB-453 [2], 26.2.
For `C=CC(=O)Nc1cc2c(Nc3ccc(F)c(Cl)c3)ncnc2cc1OCCCN1CCOCC1` [Canertinib] the same measures were 15.5 and 17.8.
For `CCCC(CCC)C(=O)O` [Valproic acid] the same measures were 1.6 and 0.9.
For `Cc1ccc(NC(=O)c2ccc(CN3CCN(C)CC3)cc2)cc1Nc1nc(-c2cccnc2)cs1` [Masitinib], in that order: 3.1 and 1.8.
For `CN1CCN(c2nc(C3=C(c4c[nH]c5ccccc45)C(=O)NC3=O)c3ccccc3n2)CC1` [Sotrastaurin], the drug sensitivity score was found to be 2.5 with MDA-MB-453 [1] and 1 with MDA-MB-453 [2].
As to `C=CC(=O)Nc1cccc(Nc2nc(Nc3ccc(N4CCN(C(C)=O)CC4)cc3OC)ncc2C(F)(F)F)c1` [Rociletinib], the drug sensitivity score was determined as 7.8 in the experiment on MDA-MB-453 [1] and 7.9 in the experiment with MDA-MB-453 [2].
For `O=C(/C=C/c1cccnc1)NCCCCC1CCN(C(=O)c2ccccc2)CC1` [Daporinad], in that order: 30.5 and 28.6.
For `COc1ccc(-c2nc(N3CCOCC3)c3sc(CN(C)c4ncc(C(=O)NO)cn4)cc3n2)cn1` [CUDC-907] the same measures were 38.8 and 40.
For `CC(C)Oc1ccc(-c2nn([C@@H](C)c3oc4ccc(F)cc4c(=O)c3-c3cccc(F)c3)c3ncnc(N)c23)cc1F` [TGR-1202] the same measures were 0.7 and 0.
For the compound `Cc1nn(C)c(COc2ccc(N3CCN(S(=O)(=O)N(C)C)CC3)cc2)c1-c1cccc2c(CCCOc3cccc4ccccc34)c(C(=O)O)n(CCN3CCOCC3)c12`, the drug sensitivity score in the experiment on MDA-MB-453 [1] and in the experiment on MDA-MB-453 [2] was 5.8 throughout.
Consider `NC(=O)/C(=C/n1cnc(-c2cc(C(F)(F)F)cc(C(F)(F)F)c2)n1)c1cncnc1` [Eltanexor], for which the drug sensitivity score in the experiment on MDA-MB-453 [1] stood at 13.8; in the experiment with MDA-MB-453 [2], 14.2.
`CN(C)CC#Cc1ccc(OCCCc2sc(N3CCc4cccc(C(=O)Nc5nc6ccccc6s5)c4C3)nc2C(=O)O)c(F)c1`: the drug sensitivity score stood at 6.6 with MDA-MB-453 [1] and 12 with MDA-MB-453 [2].
For `CNC(=O)c1ccc(-c2cnc3ncc(Cc4ccc5ncccc5c4)n3n2)cc1F` [Capmatinib] the same measures were 0 and 0.
For `CC(C)(C)Cn1c(N)nc2ccc(-c3[nH]c(C(C)(C)C)nc3-c3ccc(F)cc3)nc21` [Ralimetinib], in that order: 1.8 and 0.8.
For `COc1nc(N)nc2c1ncn2[C@@H]1O[C@H](CO)[C@@H](O)[C@@H]1O` [Nelarabine], in that order: 1.3 and 1.5.
Turning to `CC[C@H](C)C(=O)O[C@H]1C[C@@H](C)C=C2C=C[C@H](C)[C@H](CC[C@@H]3C[C@@H](O)CC(=O)O3)[C@H]21` [Lovastatin], the drug sensitivity score in the experiment on MDA-MB-453 [1] and in the experiment on MDA-MB-453 [2] was 0 in each case.
Take `Nc1ccccc1NC(=O)c1ccc(CNc2nccc(-c3cccnc3)n2)cc1` [Mocetinostat]: the drug sensitivity score came to 16 in the experiment with MDA-MB-453 [1] and 17.7 in the experiment with MDA-MB-453 [2].
For `CC(C)[C@H](C(=O)Nc1ccc(C(=O)NO)cc1)c1ccccc1` [AR-42], in that order: 18.1 and 17.8.
